Results on ten compounds are retold here after ChEMBL document CHEMBL1149393, “Single-site chemical modification at C10 of the baccatin III core of paclitaxel and Taxol C reduces P-glycoprotein interactions in bovine brain microvessel endothelial cells” (Bioorg Med Chem Lett, 2006).

The target of assay [1] is T1, Tubulin (Homo sapiens) (UniProt P68371+Q9H4B7+P0DPH7+P68366+Q13509+Q71U36+P04350+Q3ZCM7+P07437+P68363+Q9BQE3+Q6PEY2+Q13885+Q9BVA1+Q9BUF5). The experiment in a line: Cytotoxicity against human breast cancer MCF7 cell line relative to paclitaxel. In kind it is functional, cell-based.
For assay [2], the target named is T1, Tubulin (Homo sapiens). The experiment in a line: Activity in tubulin assembly assay relative to paclitaxel. The class given is functional.
Assay [3] has as its target T1, Tubulin (Homo sapiens). The experiment in a line: Cytotoxicity against multidrug resistant breast cancer MCF7/ADR cell line relative to paclitaxel. In kind it is functional, cell-based. As to conditions: NCI/ADR-RES.
Another assay deals with MCF7. The experiment in a line: Cytotoxicity against human breast cancer MCF7 cell line. In kind it is functional. As to conditions: read-out: ED50 (the source's name).
The test system of another assay is NCI/ADR-RES. The experiment in a line: Cytotoxicity against multidrug resistant breast cancer MCF7/ADR cell line. The settings on record: Homo sapiens, read-out: ED50 (the source's name). The class given is functional.

As to `CCCCCC(=O)N[C@@H](c1ccccc1)[C@@H](O)C(=O)O[C@H]1C[C@@]2(O)[C@@H](OC(=O)c3ccccc3)[C@@H]3[C@]4(OC(C)=O)CO[C@@H]4C[C@H](O)[C@@]3(C)C(=O)[C@@H](OC(C)=O)C(=C1C)C2(C)C`, the results for the Ratio ED50 on Tubulin (Homo sapiens) [1], at Tubulin (Homo sapiens) [2] and on Tubulin (Homo sapiens) [3] were 3.2, 0.21 and 1.6, respectively.
`CC(=O)O[C@@H]1C(=O)[C@@]2(C)[C@H]([C@H](OC(=O)c3ccccc3)[C@]3(O)C[C@H](OC(=O)[C@H](O)[C@@H](NC(=O)c4ccccc4)c4ccccc4)C(C)=C1C3(C)C)[C@]1(OC(C)=O)CO[C@@H]1C[C@@H]2O`: the Ratio ED50 on Tubulin (Homo sapiens) [1] was found to be 0.7; on Tubulin (Homo sapiens) [2], 0.8; at Tubulin (Homo sapiens) [3], 1.3.
Consider `CC(=O)O[C@H]1C(=O)[C@@]2(C)[C@H]([C@H](OC(=O)c3ccccc3)[C@]3(O)C[C@H](OC(=O)[C@H](O)[C@@H](NC(=O)c4ccccc4)c4ccccc4)C(C)=C1C3(C)C)[C@]1(OC(C)=O)CO[C@@H]1C[C@@H]2O` [PACLITAXEL], for which the EC50 with MCF7 came to 3.23 nM; in the assay with NCI/ADR-RES, 1.53 nM. Besides, on Tubulin (Homo sapiens) [2], the Ratio ED50 came to 1.
Consider `CCCCCC(=O)N[C@@H](c1ccccc1)[C@@H](O)C(=O)O[C@H]1C[C@@]2(O)[C@@H](OC(=O)c3ccccc3)[C@@H]3[C@]4(OC(C)=O)CO[C@@H]4C[C@H](O)[C@@]3(C)C(=O)[C@H](OC(C)=O)C(=C1C)C2(C)C`, for which the Ratio ED50 on Tubulin (Homo sapiens) [1] was 2.2; at Tubulin (Homo sapiens) [2] it was 2; at Tubulin (Homo sapiens) [3], 0.48.
Turning to `CC(=O)O[C@@]12CO[C@@H]1C[C@H](O)[C@@]1(C)C(=O)[C@@H](O)C3=C(C)[C@@H](OC(=O)[C@H](O)[C@@H](NC(=O)c4ccccc4)c4ccccc4)C[C@@](O)([C@@H](OC(=O)c4ccccc4)[C@H]21)C3(C)C`, the results for the Ratio ED50 on Tubulin (Homo sapiens) [1], at Tubulin (Homo sapiens) [2] and on Tubulin (Homo sapiens) [3] were 1.4, 3.2 and 0.7, respectively.
Turning to `CCCCCC(=O)N[C@@H](c1ccccc1)[C@@H](O)C(=O)O[C@H]1C[C@@]2(O)[C@@H](OC(=O)c3ccccc3)[C@@H]3[C@]4(OC(C)=O)CO[C@@H]4C[C@H](O)[C@@]3(C)C(=O)[C@@H](OC(=O)CC)C(=C1C)C2(C)C`, the Ratio ED50 came to 3.8 on Tubulin (Homo sapiens) [1], 2.1 on Tubulin (Homo sapiens) [2] and 2.9 at Tubulin (Homo sapiens) [3].
In the case of `CCC(=O)O[C@@H]1C(=O)[C@@]2(C)[C@H]([C@H](OC(=O)c3ccccc3)[C@]3(O)C[C@H](OC(=O)[C@H](O)[C@@H](NC(=O)c4ccccc4)c4ccccc4)C(C)=C1C3(C)C)[C@]1(OC(C)=O)CO[C@@H]1C[C@@H]2O`, the Ratio ED50 at Tubulin (Homo sapiens) [1] is 2.6; on Tubulin (Homo sapiens) [2], 4.1; on Tubulin (Homo sapiens) [3] it was 1.1.
Consider `CCCCCC(=O)N[C@@H](c1ccccc1)[C@@H](O)C(=O)O[C@H]1C[C@@]2(O)[C@@H](OC(=O)c3ccccc3)[C@@H]3[C@]4(OC(C)=O)CO[C@@H]4C[C@H](O)[C@@]3(C)C(=O)[C@@H](O)C(=C1C)C2(C)C`, for which the results for the Ratio ED50 on Tubulin (Homo sapiens) [1], on Tubulin (Homo sapiens) [2] and on Tubulin (Homo sapiens) [3] were 9.2, 1.6 and 3.1, respectively.
As to `CC(=O)O[C@@]12CO[C@@H]1C[C@H](O)[C@@]1(C)C(=O)[C@H](O)C3=C(C)[C@@H](OC(=O)[C@H](O)[C@@H](NC(=O)c4ccccc4)c4ccccc4)C[C@@](O)([C@@H](OC(=O)c4ccccc4)[C@H]21)C3(C)C`, the Ratio ED50 on Tubulin (Homo sapiens) [1] stood at 7.5; on Tubulin (Homo sapiens) [2] it was 2.1; at Tubulin (Homo sapiens) [3], 6.6.
As for `CCCCCC(=O)N[C@@H](c1ccccc1)[C@@H](O)C(=O)O[C@H]1C[C@@]2(O)[C@@H](OC(=O)c3ccccc3)[C@@H]3[C@]4(OC(C)=O)CO[C@@H]4C[C@H](O)[C@@]3(C)C(=O)[C@H](O)C(=C1C)C2(C)C`, the Ratio ED50 stood at 4.8 at Tubulin (Homo sapiens) [1], 2.2 at Tubulin (Homo sapiens) [2] and 3.8 at Tubulin (Homo sapiens) [3].
